Experimental findings from patent US8791132B2, “Compounds and methods for treatment of hypertension” (Medivation Technologies, Inc., priority 2011, dated 2014) are described below.

“And” between values parts separate entries of the source, which are not always exact repeats. Equal entries are not always repeated. Where two headings read alike, the source gives them in different places.

The target in experiment [1] is T1, human recombinant adrenergic α2A receptor (Homo sapiens, UniProt P08913).
T1 construct: expressed in transfected cells; host or cells: insect Sf9 cells
T1 sequence (P08913 1-465): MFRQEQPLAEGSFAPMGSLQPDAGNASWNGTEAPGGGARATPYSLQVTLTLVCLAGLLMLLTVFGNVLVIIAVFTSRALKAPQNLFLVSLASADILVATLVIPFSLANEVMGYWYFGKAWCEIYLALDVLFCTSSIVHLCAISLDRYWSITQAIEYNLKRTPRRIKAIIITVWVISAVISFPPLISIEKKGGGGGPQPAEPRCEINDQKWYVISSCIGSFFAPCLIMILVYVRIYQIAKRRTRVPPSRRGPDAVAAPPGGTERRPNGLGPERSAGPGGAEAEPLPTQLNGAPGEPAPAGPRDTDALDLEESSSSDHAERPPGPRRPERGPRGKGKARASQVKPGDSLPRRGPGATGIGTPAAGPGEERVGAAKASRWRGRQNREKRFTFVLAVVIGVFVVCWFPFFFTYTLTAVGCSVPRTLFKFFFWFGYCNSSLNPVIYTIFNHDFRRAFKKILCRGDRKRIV
Put plainly: Radioligand binding, adrenergic α2A ([3H]MK-912). Particulars: for Percentage inhibition of ligand binding, Adrenergic α2A (0.1 μM) / Percentage inhibition of ligand binding, Adrenergic α2A: 0.1 µM. In short, it runs like this:
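Receptor expressed in insect Sf9 cells, assayed in 50 mM Tris-HCl pH 7.4 with 12.5 mM MgCl2 and 2 mM EDTA. Compounds incubated with 1 nM [3H]MK-912 for 60 min at 25 °C; nonspecific binding defined with 10 μM WB-4101. Filter-bound radioactivity counted; values are percent inhibition of specific binding.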

Experiment [2] deals with T2, rat adrenergic α1B receptor (Rattus norvegicus, UniProt P15823).
T2 construct: rat adrenergic α1B receptor obtained from Wistar Rat liver; from tissue; host or cells: Wistar rat liver
T2 sequence (P15823 1-515): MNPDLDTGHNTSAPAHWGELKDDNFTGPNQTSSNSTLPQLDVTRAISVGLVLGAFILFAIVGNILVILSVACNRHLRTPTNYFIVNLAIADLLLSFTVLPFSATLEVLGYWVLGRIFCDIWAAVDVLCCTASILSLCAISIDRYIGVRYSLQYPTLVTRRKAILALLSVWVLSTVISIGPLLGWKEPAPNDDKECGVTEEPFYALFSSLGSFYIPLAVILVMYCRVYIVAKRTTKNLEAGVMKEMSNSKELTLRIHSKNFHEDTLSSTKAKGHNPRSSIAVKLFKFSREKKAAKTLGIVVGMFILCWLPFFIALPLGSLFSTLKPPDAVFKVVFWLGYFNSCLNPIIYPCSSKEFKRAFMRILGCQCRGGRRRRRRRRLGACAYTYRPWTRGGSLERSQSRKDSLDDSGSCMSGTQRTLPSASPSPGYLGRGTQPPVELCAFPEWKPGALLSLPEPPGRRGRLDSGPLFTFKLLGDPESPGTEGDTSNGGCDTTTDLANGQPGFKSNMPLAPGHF
Put plainly: Radioligand binding, adrenergic α1B ([3H]Prazosin). The procedure, abridged: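 Incubation ran 60 min at 25 °C in Tris-HCl buffer (50 mM, pH 7.4, 0.5 mM EDTA) with Wistar rat liver α1B receptor. 10 μM phentolamine set non-specific binding.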

In experiment [3] the target is T3, human recombinant adrenergic α2B receptor (Homo sapiens, UniProt P18089).
T3 construct: expressed in transfected cells; host or cells: CHO-K1
T3 sequence (P18089 1-450): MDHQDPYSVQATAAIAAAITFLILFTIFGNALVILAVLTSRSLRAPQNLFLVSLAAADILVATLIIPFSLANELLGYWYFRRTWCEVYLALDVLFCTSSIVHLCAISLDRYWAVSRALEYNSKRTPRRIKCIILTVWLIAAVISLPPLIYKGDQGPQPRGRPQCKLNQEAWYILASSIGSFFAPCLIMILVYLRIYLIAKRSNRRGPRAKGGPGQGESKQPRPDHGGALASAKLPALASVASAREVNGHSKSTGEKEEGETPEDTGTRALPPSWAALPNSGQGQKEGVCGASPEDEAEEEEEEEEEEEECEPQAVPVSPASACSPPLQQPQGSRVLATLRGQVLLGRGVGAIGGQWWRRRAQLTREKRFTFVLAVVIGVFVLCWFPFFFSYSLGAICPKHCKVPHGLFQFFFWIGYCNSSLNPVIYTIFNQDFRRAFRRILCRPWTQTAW
Put plainly: Radioligand binding, adrenergic α2B ([3H]Rauwolscine). Particulars: for Ki: read-out: Ki α2B. In short, it runs like this:
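Values are percent inhibition of specific radioligand binding. The receptor, expressed in CHO-K1 cells, was exposed to 2.5 nM [3H]Rauwolscine at 25° C for 60 min, with 10 μM Prazosin marking non-specific binding.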

[4] abbreviates: read-out: Percentage inhibition of ligand binding, Adrenergic α2A (0.1 μM), compound at 0.1 μM, [3H]MK-912, repeat datapoints each shown.
Setting [5] is: read-out: Percentage inhibition of ligand binding, Adrenergic α1B (0.03 μM), compound at 0.03 μM, [3H]Prazosin, repeat datapoints each shown.
Setting [6] is: read-out: Percentage inhibition of ligand binding, Adrenergic α1B (0.1 μM), compound at 0.1 μM, [3H]Prazosin, repeat datapoints each shown.
Where [7] appears, read: read-out: Percentage inhibition of ligand binding, Adrenergic α2B (0.1 μM), compound at 0.1 μM, [3H]Rauwolscine, repeat datapoints each shown.
[8] abbreviates: compound at 0.1 μM, [3H]MK-912, repeat assays, each datapoint shown, read-out: Percentage inhibition of ligand binding, Adrenergic α2A.
The mark [9] stands for this setting: compound at 0.1 μM, [3H]Prazosin, repeat assays, each datapoint shown, 0.1 µM.
Setting [10] is: compound at 0.1 μM, [3H]Prazosin, repeat assays, each datapoint shown, read-out: Percentage inhibition of ligand binding, Adrenergic α1B.
[11] abbreviates: compound at 0.03 μM, [3H]Rauwolscine, repeat assays, each datapoint shown, read-out: Percentage inhibition of ligand binding, Adrenergic α2B.
Setting [12] is: compound at 0.1 μM, [3H]Rauwolscine, repeat assays, each datapoint shown, read-out: Percentage inhibition of ligand binding, Adrenergic α2B.
Where [13] appears, read: compound at 0.03 μM, [3H]Prazosin, repeat assays, each datapoint shown, 0.03 µM.
[14] abbreviates: compound at 0.03 μM, [3H]Prazosin, repeat assays, each datapoint shown, read-out: Percentage inhibition of ligand binding, Adrenergic α1B.
Where [15] appears, read: compound at 0.03 μM, [3H]Rauwolscine, repeat assays, each datapoint shown, 0.03 µM.
Where [16] appears, read: compound at 0.1 μM, [3H]Rauwolscine, repeat assays, each datapoint shown, 0.1 µM.
[17] abbreviates: compound at 0.1 μM, [3H]Prazosin, repeat datapoints each shown, 0.1 µM.
Setting [18] is: compound at 0.1 μM, [3H]MK-912, repeat datapoints each shown.
[19] abbreviates: compound at 0.1 μM, [3H]Rauwolscine, repeat datapoints each shown, 0.1 µM.
Setting [20] is: compound at 0.1 μM, [3H]MK-912, repeat assays, each datapoint shown.

On to `CCN1CCc2c(c3cc(C)ccc3n2CCc2ccc(C)cc2)C1` [compound 202], for which the figures for the inhibition at 0.1 µM in experiment [1] (setting [4]), in experiment [2] (setting [6]) and in experiment [3] (setting [7]) were 92%, 52% and 22%, respectively. Further, the inhibition at 0.03 µM is 29% in experiment [2] (setting [5]) and 7% in experiment [3] (read-out: Percentage inhibition of ligand binding, Adrenergic α2B (0.03 μM), compound at 0.03 μM, [3H]Rauwolscine, repeat datapoints each shown).
Turning to `Cc1ccc2c(c1)c1c(n2CC(C)(O)c2cccnc2)CCN(C)C1` (stereo not shown) [compound 5, 1-(1,2,3,4-tetrahydro-2,8-dimethylpyrido[4,3-b]indol-5-yl)-2-(pyridin-3-yl)propan-2-ol], the inhibition at 0.1 µM in experiment [1] (setting [8]) is 13%; in experiment [2] (setting [10]) it was 14%; in experiment [3] (setting [12]), 96%. For the same compound, the “Percentage inhibition of ligand binding, Adrenergic α1B” value in experiment [2] (setting [9]) is 21%. Also, the inhibition at 0.03 µM in experiment [3] (setting [11]) turned out to be 100%.
Regarding `Cc1ccc2c(c1)c1c(n2CCc2ccc(CO)nc2)CCN(C)C1` [compound 91], the inhibition at 0.03 µM in experiment [1] (compound at 0.03 μM, [3H]MK-912, repeat assays, each datapoint shown, read-out: Percentage inhibition of ligand binding, Adrenergic α2A) was found to be 6%; in experiment [2] (setting [14]) it was 25%; in experiment [2] (setting [5]), 32%; in experiment [3] (setting [11]) it was 53%. The inhibition at 0.1 µM in experiment [1] (setting [8]) worked out at 5%; in experiment [2] (setting [10]), 52%; in experiment [2] (setting [6]), 58%; in experiment [3] (setting [12]), 82%; in experiment [3] (setting [7]), 87%. In addition, the “Percentage inhibition of ligand binding, Adrenergic α1B” value in experiment [2] (setting [13]) amounted to 28%; in experiment [2] (setting [9]), 53%. The “Percentage inhibition of ligand binding, Adrenergic α2B” value stood at 56% in experiment [3] (setting [15]) and 83% in experiment [3] (setting [16]). In addition, in experiment [3], the Ki is 9.84 nM and 10.7 nM and 12 nM.
Regarding `Cc1ccc2c(c1)c1c(n2CC(O)c2ccncc2)CCN2CCCC12` (single isomer, unassigned) [129d], the inhibition constant (Ki) in experiment [1] worked out at 1.87 nM; in experiment [3], 0.35 nM. In addition, in experiment [1] (compound at 0.03 μM, [3H]MK-912, repeat datapoints each shown, 0.03 µM), the “Percentage inhibition of ligand binding, Adrenergic α2A (0.03 μM)” value is reported as 87%. Besides, in experiment [2] (compound at 0.03 μM, [3H]Prazosin, repeat datapoints each shown, 0.03 µM), the “Percentage inhibition of ligand binding, Adrenergic α1B (0.03 μM)” value was 93%. In experiment [2] (setting [17]), the “Percentage inhibition of ligand binding, Adrenergic α1B (0.1 μM)” value is 94% and 99%.
Take `Cc1ccc2c(c1)c1c(n2CCc2cccnc2)CCN(C)C1` [compound 61]: the inhibition at 0.1 µM in experiment [1] (setting [8]) amounted to 30%; in experiment [2] (setting [10]), 60%; in experiment [3] (setting [12]), 85%. The inhibition at 0.03 µM in experiment [2] (setting [14]) came to 28%; in experiment [3] (setting [11]), 65%. Also, the “Percentage inhibition of ligand binding, Adrenergic α2B” value was found to be 80% in experiment [3] (setting [15]) and 94% in experiment [3] (setting [16]). Moreover, the Ki in experiment [3] turned out to be 5.89 nM.
Turning to `COc1ccc(/C(C)=C/n2c3c(c4cc(C)ccc42)CCN(C)CC3)cc1F` [compound 241], the “Percentage inhibition of ligand binding, Adrenergic α2A (0.1 μM)” value in experiment [1] (setting [18]) is 78%. Moreover, the values for the inhibition at 0.1 µM in experiment [1] (setting [4]), in experiment [2] (setting [6]) and in experiment [3] (setting [7]) were 75%, 81% and 91%, respectively. Moreover, the “Percentage inhibition of ligand binding, Adrenergic α1B (0.1 μM)” value in experiment [2] (setting [17]) is 82%. Besides, the “Percentage inhibition of ligand binding, Adrenergic α2B (0.1 μM)” value in experiment [3] (setting [19]) came out at 93%.
As to `Cc1ccc2c(c1)c1c(n2CC(C)(O)c2cccnc2)CCN(C)C1` (single isomer, unassigned) [5b, 1-(1,2,3,4-tetrahydro-2,8-dimethylpyrido[4,3-b]indol-5-yl)-2-(pyridin-3-yl)propan-2-ol], the Ki in experiment [1] was 152 nM and 192 nM and 195 nM; in experiment [2], 184 nM; in experiment [3], 0.95 nM and 1.06 nM and 4.53 nM. In experiment [1] (setting [20]), the “Percentage inhibition of ligand binding, Adrenergic α2A” value was 18% and 21% and 22%. Further, the “Percentage inhibition of ligand binding, Adrenergic α1B” value in experiment [2] (setting [13]) was 11% and 15%; in experiment [2] (setting [9]), 23% and 30% and 33%. Further, the inhibition at 0.03 µM in experiment [2] (setting [14]) turned out to be 10%. In addition, the “Percentage inhibition of ligand binding, Adrenergic α2B” value in experiment [3] (setting [15]) is 81% and 86% and 90% and 100%; in experiment [3] (setting [16]), 82% and 100% and 107%.
Take `COc1ccc(/C(C)=C/n2c3c(c4cc(Cl)ccc42)CCN(C)CC3)cc1F` [compound 240]: the “Percentage inhibition of ligand binding, Adrenergic α2A (0.1 μM)” value in experiment [1] (setting [18]) turned out to be 87%. For the same compound, the results for the inhibition at 0.1 µM in experiment [1] (setting [4]), in experiment [2] (setting [6]) and in experiment [3] (setting [7]) were 82%, 74% and 83%, respectively. Further, the “Percentage inhibition of ligand binding, Adrenergic α1B (0.1 μM)” value in experiment [2] (setting [17]) worked out at 75%. For the same compound, the “Percentage inhibition of ligand binding, Adrenergic α2B (0.1 μM)” value in experiment [3] (setting [19]) was 97%.
With `Cc1ccc2c(c1)c1c(n2CC2(c3ccccc3)OCCO2)CCN(C)C1` [compound 83], in experiment [1] (setting [20]), the “Percentage inhibition of ligand binding, Adrenergic α2A” value was determined as 29%. Also, the inhibition at 0.1 µM stood at 21% in experiment [1] (setting [8]), 9% in experiment [2] (setting [10]) and 78% in experiment [3] (setting [12]). Also, in experiment [2] (setting [9]), the “Percentage inhibition of ligand binding, Adrenergic α1B” value was 15%. For the same compound, the inhibition at 0.03 µM in experiment [3] (setting [11]) stood at 63%.
For the compound `Cc1ccc2c(c1)c1c(n2CC(C)(O)c2cnccn2)CCN2CCCC12` (single isomer, unassigned) [176a], in experiment [1] (setting [18]), the “Percentage inhibition of ligand binding, Adrenergic α2A (0.1 μM)” value is on record as 32%. The “Percentage inhibition of ligand binding, Adrenergic α1B (0.1 μM)” value in experiment [2] (setting [17]) is recorded as 79%. Also, the inhibition at 0.03 µM in experiment [2] (setting [5]) was found to be 52%. The “Percentage inhibition of ligand binding, Adrenergic α2B (0.03 μM)” value in experiment [3] (compound at 0.03 μM, [3H]Rauwolscine, repeat datapoints each shown, 0.03 µM) is 93% and 98% and 100%. The Ki in experiment [3] was 0.53 nM. The inhibition at 0.1 µM in experiment [3] (setting [7]) turned out to be 105%.
